Test results as given in patent US20190381017A1, “Compositions Comprising Serdexmethylphenidate Conjugates And Methods Of Use Thereof” (KemPharm, Inc., priority 2018, published 2019).
Where a name gives a salt, the structure may show the parent alone. Marks after values point to notes of the source that are not given here.

Tests used:
[1] = tested on: recreational stimulant users; assay: Intravenous abuse potential, VAS pharmacodynamic scores (Example 2); type: in vivo, human; conditions: SDX Cl 30 mg, d-MPH HCl 15 mg, bipolar VAS
Text: “Drug liking” score, used herein, is the score used to assess the degree that a human participant likes a drug effect at the time the question is being asked (that is, at the moment). It is scored using a 0 to 100 point bipolar visual analogue scale (VAS) anchored in the center with a neutral anchor of “neither like nor dislike” (score of 50), on the left with “strong disliking” (score of 0) and on the right with “strong liking” (score of 100).
“Euphoria” or “Feeling High” score, used herein, is the term to describe the score used to assess the degree that a human participant is high at the time the question is being asked (that is, at the moment). It is scored using a 0 to 100 point unipolar visual analogue scale (VAS) anchored on the left with “Not at All” (score of 0) and on the right with “Extremely” (score of 100).
“Take Drug Again” score, used herein, is the term to describe the score used to assess the degree that a human participant wants to take the drug again, if given the opportunity, based on his/her opinion now, i.e., at the time the question is being asked. It is scored using a 0 to 100 point unipolar visual analogue scale (VAS) anchored on the left with “Definitely Would Not” (score of 0) and on the right with “Definitely Would” (score of 100).
“Overall Drug Liking” score, used herein, is the term to describe the score used to assess the human subject's global perception of drug liking (i.e., the subjective effects over the whole course of the drug experience including any carryover effects). Subjects respond to the statement “Overall, my liking for this drug is.” The question is scored using a 0-100 point bipolar VAS anchored on the left with “Strong Disliking” (score of 0); “Neither Like nor Dislike” (score of 50) in the middle, and anchored on the right with “Strong Liking” (score of 100). This scale has the advantage of the human subject being relatively less affected or unaffected by acute study drug effects (if any) by the time of the assessment.
“Good Effects” score, used herein, is the term to describe the score used to assess the degree that a human participant is feeling good drug effects at the time the question is being asked (that is, at the moment). Subjects respond to the statement “At this moment, I can feel good drug effects.” It is scored using a 0 to 100 point unipolar visual analogue scale (VAS) anchored on the left with “Not at All” (score of 0) and on the right with “Extremely” (score of 100).
Safety assessments were performed throughout the study.

[2] = tested on: recreational stimulant users; assay: Treatment-emergent adverse events, intravenous study (Example 2)
Description: A study was conducted in humans to assess the intravenous abuse potential of serdexmethylphenidate relative to unconjugated d-methylphenidate and placebo in recreational stimulant abusers. This was a Phase 1, randomized, double-blind study in which serdexmethylphenidate and d-methylphenidate were administered intravenously in recreational stimulant users with a history of non-oral abuse. In Part A of the study, subjects (Cohort 1) participated in a dose-escalation phase to determine the optimal dose of intravenous d-methylphenidate based on tolerability and abuse-related pharmacodynamic assessments. […] The doses of serdexmethylphenidate and d-methylphenidate are equivalent with respect to molar amount of d-methylphenidate. FDA-recommended abuse potential measures and blood samples were collected at different times after dosing. Safety assessments were performed throughout the study.

[3] = tested on: healthy, nondependent, recreational stimulant users; assay: Oral abuse potential, VAS pharmacodynamic scores (Example 4); conditions: phentermine HCl 60 mg
[4] = SDX Cl 120 mg, Focalin XR 80 mg
[5] = SDX Cl 120 mg, Focalin XR 80 mg, bipolar VAS
[6] = SDX Cl 120 mg, Focalin XR 80 mg, unipolar VAS

## COC(=O)[C@H](c1ccccc1)[C@H]1CCCCN1 [d-methylphenidate, methyl (R)-2-phenyl-2-((R)-piperidin-2-yl)acetate, reference compound]
[1]
  Drug Liking Emax (mean): 84.3
[2]
  typical stimulant-related Adverse Events (euphoric mood, hypervigilance, increased heart rate), frequency vs serdexmethylphenidate: more common

## COC(=O)[C@H](c1ccccc1)[C@H]1CCCCN1C(=O)OC[n+]1cccc(C(=O)N[C@@H](CO)C(=O)O)c1 [serdexmethylphenidate]
[1]
  Drug Liking Emax (mean): 56.6

## CC(C)(N)Cc1ccccc1 [phentermine hydrochloride, reference compound]
[3]; Focalin XR 80 mg
  Mean difference Any Effects Emax vs SDX Cl 120 mg: 37.4
  Mean difference Any Effects Emax vs SDX Cl 240 mg: 28.0
  Mean difference Bad Effects Emax vs SDX Cl 120 mg: 11.9
  Mean difference Bad Effects Emax vs SDX Cl 240 mg: 4.6
  Mean difference Drug Liking Emax vs SDX Cl 120 mg: 15.5
  Mean difference Drug Liking Emax vs SDX Cl 240 mg: 14.0
  Mean difference Feeling Alert/Drowsy Emax vs SDX Cl 120 mg: 15.7
  Mean difference Feeling Alert/Drowsy Emax vs SDX Cl 240 mg: 12.2
  Mean difference Feeling High Emax vs SDX Cl 120 mg: 36.0
  Mean difference Feeling High Emax vs SDX Cl 240 mg: 27.7
  Mean difference Good Effects Emax vs SDX Cl 120 mg: 35.5
  Mean difference Good Effects Emax vs SDX Cl 240 mg: 30.2
  Mean difference Overall Drug Liking Emax vs SDX Cl 120 mg: 14.9
  Mean difference Overall Drug Liking Emax vs SDX Cl 240 mg: 15.3
  Mean difference Take Drug Again Emax vs SDX Cl 120 mg: 14.9
  Mean difference Take Drug Again Emax vs SDX Cl 240 mg: 15.4
[3]; [4]
  Mean difference Any Effects Emax vs placebo: 48.5
  Mean difference Drug Liking Emax vs placebo: 22.3
  Mean difference Feeling Alert/Drowsy Emax vs placebo: 23.5
  Mean difference Feeling High Emax vs placebo: 46.4
  Mean difference Good Effects Emax vs placebo: 47.6
  Mean difference Overall Drug Liking Emax vs placebo: 18.6
  Mean difference Take Drug Again Emax vs placebo: 17.1
[3]; [5]
  Drug Liking Emax (mean): 80.2
  Drug Liking Emax (median): 84.0
  Feeling Alert/Drowsy Emax (mean): 81.4
  Feeling Alert/Drowsy Emax (median): 84.0
  Overall Drug Liking Emax (mean): 73.4
  Overall Drug Liking Emax (median): 77.0
  Take Drug Again Emax (mean): 72.3
  Take Drug Again Emax (median): 75.0
[3]; [6]
  Any Effects Emax (mean): 69.2
  Any Effects Emax (median): 74.0
  Bad Effects Emax (mean): 17.9
  Bad Effects Emax (median): 7.0
  Feeling High Emax (mean): 65.3
  Feeling High Emax (median): 76.0
  Good Effects Emax (mean): 66.2
  Good Effects Emax (median): 75.0
[3]
  Median difference Bad Effects Emax vs placebo: 8.0^c
